# In patent publication US11180509B2, “Thiazolidone spiro pyrimidine trione compound, preparation method therefor and uses thereof” (SHANGHAI INSTITUTE OF MATERIA MEDICA, CHINESE ACADEMY OF …, priority 2017, dated 2021):
# Where two headings read alike, the source gives them in different places.
# Columns and labels:
# [1] = In vivo pharmacokinetics test in mice (oral); design: species or system CD-1 mice; conditions: PO 10.0 mg/kg
# Description: Healthy female CD-1 mice were randomly divided into five groups and each group comprised three mice. The tested compound was administered orally.
# 0.030 mL of blood was taken from the orbit of each animal each time and anticoagulated with EDTAK2. The collection time was as follows. PO group: 15 m, 30 mi, 1 h, 2 h, 4 h, 6 h, 8 h, and 24 h after administration of the test compound. The collected blood samples were placed on ice and centrifuged within 30 minutes to separate the plasma (centrifugation conditions: 5000 rpm, 10 minutes, room temperature). The samples were stored at −80° C. before analysis.
# [2] = test system: methicillin-resistant Staphylococcus aureus or MRSA; assay: In vitro antibacterial activity, MIC by micro broth dilution; type: cell-based; conditions: read-out: MIC MRSA
# Excerpt: (§1) The following strains isolated in clinic were used in antibacterial activity screening in vitro: five strains of methicillin-resistant Staphylococcus aureus or MRSA, five strains of methicillin-sensitive Staphylococcus aureus or MSSA, five strains of methicillin-resistant Staphylococcus epidermidis or MRSE, five strains of methicillin-sensitive Staphylococcus epidermidis or MSSE, three strains of penicillin-resistant Streptococcus pneumoniae or PRSP, and three strains of Streptococcus pyogenes.
# (§2) The above strains were clinically isolated pathogenic bacteria collected in Sichuan and Beijing in December 2015. They were identified by the collection unit via a VITEK-60 automatic microbiological identification instrument, and then re-identified by conventional methods in the laboratory. Before the experiment, each strain was purified by a single colony on an agar plate, and the cells freshly cultured at 37° C. overnight were appropriately diluted for the experiment. Quality control strain was Staphylococcus aureus ATCC25923 purchased from the Clinical Testing Center of the Ministry of Health of the People's Republic of China.
# (§3) Medium: MH (Mueller-Hinton, hydrolyzed casein) broth (OXOID);
# (§4) Culture condition: Incubate at 35-37° C. for 16-18 h.
# (§5) The MIC value of each test sample for the tested strain was determined by micro broth dilution method recommended by Performance Standards for Antimicrobial Susceptibility Testing (Twenty-Third Informational Supplement; M02-A11, M07-A9 and M11-A8, 2013) of American Clinical and Laboratory Standards Institute (CLSI).
# (§6) After diluting each test sample to different concentrations in MH broth, 100 μl of each sample solution at different concentrations was pipetted into a sterilized 96-well polystyrene plate. In the first to twelfth wells, the drug solution was added, and the final drug concentrations in each well were 64, 32, 16, 8, 4, 2, 1, 0.5, 0.25, 0.125, 0.06, and 0.03 mg/L. The well without drug and without bacteria was set as blank control well. The well with bacteria and without drug was set as a bacterial growth control well.
# (§7) The test bacterial solution was adjusted with physiological saline to a bacterial suspension equivalent to 0.5 Maisson turbidity standard, and diluted 1:100 with MH broth. The drug solution was added so that the final concentration of the bacterial solution was about 10^4 CFU/ml; then 100 μl of bacterial solution was pipetted into the above wells (the total volume in each well was 200 μl). The plate was sealed and placed in a 35-37° C. incubator for 18-20 h, and then the results were determined. […] When Streptococcus pneumoniae was tested, sterile defibrillated sheep blood was added into the Colombian broth culture medium at a final concentration of 5% and cultivation was conducted in a 5% CO2 and 35-37° C. incubator for 18-20 hours.
# [3] = test system: penicillin-resistant Streptococcus pneumoniae or PRSP; assay: as above; type: cell-based; conditions: read-out: MIC PRSP
# Excerpt: as §1, §2, §3, §4, §5, §6, §7
# [4] = test system: methicillin-resistant Staphylococcus epidermidis or MRSE; assay: as above; type: cell-based; conditions: read-out: MIC MRSE
# Excerpt: as §1, §2, §3, §4, §5, §6, §7
# [5] = test system: methicillin-sensitive Staphylococcus aureus or MSSA; assay: as above; type: cell-based; conditions: read-out: MIC MSSA
# Excerpt: as §1, §2, §3, §4, §5, §6, §7
# [6] = test system: methicillin-sensitive Staphylococcus epidermidis or MSSE; assay: as above; type: cell-based; conditions: read-out: MIC MSSE
# Excerpt: as §1, §2, §3, §4, §5, §6, §7
# Streptococcus pyogenes = assay: as above; type: cell-based; conditions: read-out: MIC Spy
# Excerpt: as §1, §2, §3, §4, §5, §6, §7
# [7] = test system: Staphylococcus aureus MRSA15-3; assay: In vitro antibacterial activity against the in vivo test strain (MIC); type: cell-based; conditions: MRSA153
# Description: as §5, §6
# The test bacterial solution was adjusted with physiological saline to a bacterial suspension equivalent to 0.5 Maisson turbidity standard, and diluted 1:100 with MH broth. The drug solution was added so that the final concentration of the bacterial solution was about 10^4 CFU/ml; then 100 μl of bacterial solution was pipetted into the above wells (the total volume in each well was 200 μl). The plate was sealed and placed in a 35-37° C. incubator for 18-20 h, and then the results were determined. […]
# [8] = test system: S. aureus MRSA15-3 infected mice; assay: In vivo protection test, systemic infection model (ED50); design: species or system Kunming mice; conditions: Staphylococcus aureus
# [9] = test system: MRSA, MSSA, MRSE, MSSE, PRSP, and Spy; assay: In vitro antibacterial activity over the whole strain panel, compared with AZD0914; type: cell-based; conditions: against MRSA
# Excerpt: as §1, §2, §5, §6, §7
# [10] = In vivo pharmacokinetic test in rats (PO and IV); conditions: SD rats
# Description: Nine SD rats were randomly divided into three groups and each group comprised three […].
# 0.100 mL of blood was taken from the orbit of each animal each time and anticoagulated with EDTAK2. The collection time was as follows. (1) PO group (10.0 mg/kg): 15 min, 30 min, 1 h, 2 h, 4 h, 6 h, 8 h, 24 h after administration of the test compound; PO group (100 mg/kg): 15 min, 30 min 1 h, 2 h, 4 h, 6 h, 8 h, 10 h, 24 h, 36 h, 48 h; (2) IV group: 5 min, 15 min, 30 min, 1 h, 2 h, 4 h, 6 h, 8 h, 24 h after administration of the test compound. The collected blood samples were placed on ice and centrifuged within 30 minutes to separate the plasma (centrifugation conditions: 5000 rpm, 10 minutes, 4° C.). The samples were stored at −80° C. before analysis.
# [11] = female, CD-1, mouse, plasma, read-out: Cmax
# [12] = female, CD-1, mouse, plasma, read-out: MRT
# [13] = female, CD-1, mouse, plasma, read-out: Tmax
# [14] = po, read-out: ED50 95% confidence limit
compound,measurement,setting,value
"C[C@@H]1CN2c3c(cc4c(N5C(=O)OC[C@@H]5C)noc4c3F)CC3(C(=O)NC(=O)NC3=O)[C@H]2[C@H](C)O1 [AZD0914, reference compound]",AUC(0-t),"[1]; female, CD-1, mouse, plasma",748 ± 215 ng·h/mL
same,half-life,"[1]; female, CD-1, mouse, plasma",3.41 ± 0.944 h
same,Cmax,[1]; [11],183 ± 134 ng/mL
same,MRT,[1]; [12],7.06 ± 2.92 h
same,Tmax,[1]; [13],0.583 ± 0.382 h
same,MIC,[2],0.06 to 1 µg/mL
same,MIC,[3],0.25 to 1 µg/mL
same,MIC,[4],0.06 to 0.25 µg/mL
same,MIC,[5],0.125 to 0.25 µg/mL
same,MIC,[6],0.06 to 0.25 µg/mL
same,MIC,Streptococcus pyogenes,0.25 to 0.5 µg/mL
same,MIC,[7],0.125 µg/mL
same,ED50,[8],11.5 mg/kg
same,ED50,[8]; [14],7.28 to 25.8 mg/kg
"C[C@@H]1CN2c3c(cc4c(N5CCSC5=O)noc4c3F)CC3(C(=O)NC(=O)NC3=O)[C@H]2[C@H](C)O1 [Compound 1, (2R,4S,4aS)-11-fluoro-2,4-dimethyl-8-(2-oxothiazolin-3-yl)-1,2,4,4a-tetrahydro-2′H,6H-spiro[isoxazole[4,5-g][1,4]oxazine[4,3-a]quinoline-5,5′-pyrimidine]-2′,4′,6′(1′H,3′H)-trione]",AUC0→t relative to AZD0914,[1]; multiple of the AZD0914 value,~10 times)
same,Cmax relative to AZD0914,[1]; multiple of the AZD0914 value,~8 times)
same,AUC0→t,[1]; plasma,7334 ± 943 ng·h/mL
same,Cmax,[1]; plasma,1548 ± 52 ng/mL
same,MRT,[1]; plasma,3.70 ± 0.95 h
same,Tmax,[1]; plasma,1.33 ± 0.577 h
same,t1/2,[1]; plasma,2.90 ± 1.72 h
same,MIC,[2],0.03 to 0.06 µg/mL
same,MIC,[3],< 0.03 µg/mL
same,MIC,[4],< 0.03 µg/mL
same,MIC,[5],< 0.03 µg/mL
same,MIC,[6],< 0.03 µg/mL
same,MIC,Streptococcus pyogenes,< 0.03 µg/mL
same,melting point,,225 to 226 °C
same,in vitro antibacterial activity relative to AZD0914,[9],about 8 times
"C[C@@H]1CN2c3c(cc4c(N5C[C@H](C)SC5=O)noc4c3F)CC3(C(=O)NC(=O)NC3=O)[C@H]2[C@H](C)O1 [Compound 2, (2R,4S,4aS)-11-fluoro-2,4-dimethyl-8-((S)-5-methyl-2-oxothiazolin-3-yl)-1,2,4,4a-tetrahydro-2′H,6H-spiro[isoxazole[4,5-g][1,4]oxazine[4,3-a]quinoline-5,5′-pyrimidine]-2′,4′,6′(1′H,3′H)-trione]",AUC(0-t),"[1]; female, CD-1, mouse, plasma",24200 ± 5640 ng·h/mL
same,half-life,"[1]; female, CD-1, mouse, plasma",6.2 ± 1.4 h
same,Cmax,[1]; [11],2580 ± 713 ng/mL
same,MRT,[1]; [12],8.94 ± 2.15 h
same,Tmax,[1]; [13],2.67 ± 1.15 h
same,MIC,[2],0.03 to 0.25 µg/mL
same,MIC,[3],< 0.03 µg/mL
same,MIC,[4],< 0.03 µg/mL
same,MIC,[5],0.03 to 0.06 µg/mL
same,MIC,[6],< 0.03 µg/mL
same,MIC,Streptococcus pyogenes,< 0.03 µg/mL
same,AUC0-t (IV),[10]; IV 10 mg/kg,89577 ± 9072 ng·h/mL
same,Cl (IV),[10]; IV 10 mg/kg,1.82 ± 0.214 mL/min/kg
same,T1/2 (IV),[10]; IV 10 mg/kg,4.93 ± 0.844 h
same,Vdss (IV),[10]; IV 10 mg/kg,0.675 ± 0.0578 L/kg
same,% F,[10]; PO 10 mg/kg,52.0 ± 8.41%
same,AUC0-t (PO),[10]; PO 10 mg/kg,46598 ± 7538 ng·h/mL
same,Cmax (PO),[10]; PO 10 mg/kg,4430 ± 1250 ng/mL
same,T1/2 (PO),[10]; PO 10 mg/kg,4.38 ± 1.21 h
same,Cmax (PO),[10]; PO 100 mg/kg,32069 ± 7934 ng/mL
same,MRT,"[10]; rat, plasma, IV 10 mg/kg, read-out: MRT (IV)",6.22 ± 0.601 h
same,Tmax,"[10]; rat, plasma, PO 10 mg/kg",5.33 ± 1.15 h
same,MRT,"[10]; rat, plasma, PO 10 mg/kg, read-out: MRT (PO)",7.54 ± 0.773 h
same,AUC(0-t),"[10]; rat, plasma, PO 100 mg/kg",509000 ± 65900 ng·h/mL
same,Tmax,"[10]; rat, plasma, PO 100 mg/kg",5.33 ± 1.15 h
same,bioavailability,"[10]; rat, plasma, PO 100 mg/kg",55.1 ± 7.1%
same,MRT,"[10]; rat, plasma, PO 100 mg/kg, read-out: MRT (PO)",11.1 ± 2.11 h
same,half-life,"[10]; rat, plasma, PO 100 mg/kg, read-out: T1/2 (PO) (converted)",4.19 ± 0.23 h
same,MIC,[7],< 0.03 µg/mL
same,ED50,[8],2.54 mg/kg
same,ED50,[8]; [14],0.11 to 3.71 mg/kg
